Laboratory results taken from patent US20100125053A1, “Allosteric Modulation of the Dopamine Transporter Protein for the Treatment of HIV-1 Induced Neurologic Dysfunction” (priority 2008, published 2010).

Test system: striatal synaptosomes
Experiment: [3H]leucine uptake assay in rat striatal synaptosomes (electrochemical gradients)
Format: cell-based
Conditions: 15 min preincubation, [3H]leucine 10 min
Procedure: [^3H]Leucine Uptake Assay. […] The uptake assay was performed in duplicate with a final volume of 250 μl. […] TatΔ31-61 and leucine were chosen as negative and positive controls, respectively. Assay tubes were placed in an oxygenated metabolic shaker at 34° C. for 15 min. Subsequently, 1 μM [^3H]leucine (final concentration, 25 μl) was added to each tube and incubation was continued for 10 min at 34° C. in the metabolic shaker. […] Nonspecific uptake for [^3H]leucine and [^3H]DA was determined in the presence of 10 mM L-lysine and 10 μM nomifensine, respectively. Incubation was terminated by the addition of 3 ml of ice-cold assay buffer, followed by immediate filtration through Whatman GF/B glass fiber filters. Filters were washed 3 times with 3 ml ice-cold assay buffer using a Brandel cell harvester.

## CC(C)C[C@H](N)C(=O)O [leucine]
1 μM
  inhibition at 1 µM: ~10%
10 μM, read-out: inhibition / decrease of [3H]leucine uptake
  inhibition at 10 µM: ~40%
